# Measurements as given in a melting point compilation (Tetko et al.; mined from patent text by program, amines drawn as free bases though some values may be those of a salt).
row,SMILES,melting point [°C]
1,COc1ccc(-n2ncc(C(N)=O)c2N)cc1,213 to 215
2,Cn1ncc(Cl)c(N)c1=O,106 to 107
3,C=C1C(O)C(COC(=O)CCCCCCCCCCCCCCCCC)OC1n1ccc(NC(=O)CCCCCCCCCCCCCCCCC)nc1=O (stereo not drawn),135 to 139
4,CCCOc1ccc(S(=O)(=O)Nc2ccc3[nH]ncc3c2)cc1-c1nc2cc(N)c(N)cc2c(=O)[nH]1,261 to 263
5,CCc1ccc(NN)c(Cl)c1,55 to 57
6,CC(C)(O)P(=O)(Oc1ccccc1)Oc1ccccc1,70 to 72
7,Cc1cc(C)nc(Nc2ccc(OC(F)F)cc2)n1,81 to 82
8,Cc1cc2nc(C=Cc3ccc(C(=O)O)cc3)oc2cc1C,> 300
9,CC(C)(Oc1ccc(CC(=O)Nc2ccc(C(F)(F)F)cc2)cc1)C(=O)O,197
10,CN(C)c1cc(CC(C#N)=CNc2ccccc2)cc(N(C)C)c1N1CCCCC1,200 to 202
11,CC(=O)Nc1ccc(C=Nc2cc(Cl)c(N=CN(C)C)c(Cl)c2)cc1,171 to 173
12,CCOC(=O)CON1C(=O)C(=O)N(c2ccccc2SC)C1=S,112 to 114
13,CC[C@@H]1O[C@](C#CC2CC2)(C(F)(F)F)c2c(ccc(F)c2F)NC1=O (relative stereo),180 to 181
14,N=C(NO)c1cccc(-c2ccc(O)c(-c3nc4cc(C(=N)NO)ccc4[nH]3)c2)c1,352 to 355
15,CCC1C(C)=NN=C(c2ccccc2Cl)c2cc(OC)c(OC)cc21 (stereo not drawn),129 to 131
16,COc1ccc(-c2nc(-c3ccccn3)cs2)cc1,100 to 103
17,Cc1cc(NS(=O)(=O)c2ccc(Cl)cc2)cc(C)c1S(=O)(=O)C[N+](=O)[O-],160 to 162
18,C1COCCN2CCSCCSCCN(CCO1)CCSCCSCC2,86
19,CC(Nc1c(Nc2ccc(S(N)(=O)=O)cc2)c(=O)c1=O)C(C)(C)C (stereo not drawn),233 to 235
20,CC(C)(N)c1cc(Cl)c(Cl)c(Cl)c1,56 to 59
21,COC(=O)c1ccccc1NC(=O)C=C(c1ccc(Cl)cc1)c1ccc(Cl)cc1,141 to 143
22,CC(C)(C)OC(=O)NCC(=O)N1[C@@H](C(=O)OC(C)(C)C)C[C@H](S(=O)(=O)c2ccccc2)[C@H]1c1ccccc1F (racemic),134
23,CCOC(=O)C1C(=O)CC(C)(O)C(C(=O)OCC)C1c1cc(Br)c2oc(C)c(C)c2c1 (stereo not drawn),194 to 195

# Second part, the compound after the results:
row,melting point [°C],SMILES
1,149 to 152,CCOC(=O)C1=C(C)NC(c2ncsc2Cl)=NC1c1ccc(F)cc1Cl (stereo not drawn)
2,157 to 161,O=c1c2c(n(-c3cccc(Cl)c3)c3ncccc13)CCN(Cc1ccccc1)C2
3,100 to 101,CCCc1nn(-c2ccc(C(F)(F)F)cn2)cc1CCCOc1ccccc1CC(=O)O
4,101 to 102,CN1CCCC1CCOc1ccccc1CCc1cccc(C#N)c1 (stereo not drawn)
5,115,COc1cc(N)c(Cl)cc1C(=O)N[C@H]1CCN(CCCCNc2ncccn2)C[C@H]1OC (relative stereo)
6,290 to 293,Cc1[nH]c(C(=O)NCCc2ccccn2)c(C)c1-c1nc2ccc(Oc3ccccc3)cc2[nH]1
7,107,COc1cc(OCC(O)CCl)cc2oc3ccccc3c(=O)c12 (stereo not drawn)
8,168 to 170,COc1ccc(CCC(=O)Nc2nc3c(s2)CCN(CC=Cc2cccnc2)CC3)cc1
9,149,COC(=O)C1(NC(=O)Cc2cc(-c3ccc(Cl)cc3)ccc2C)CCCC(C(F)(F)F)C1 (stereo not drawn)
10,163 to 164,COC(=O)C=Cc1cnc(N2CCC[C@H]2CO)nc1NCc1ccc(OC)c(Cl)c1
11,138 to 140,COc1cc(C(C)=O)ccc1OCCC(C)N1CCN(c2nn(C(=O)c3ccccc3)c3cc(F)ccc23)CC1 (stereo not drawn)
12,82 to 84,CCOC(=O)c1cnn2c1c(NC(C)CC)nc1ccccc12 (stereo not drawn)
13,78,CCCN(CCCc1csc2ccc(F)cc12)C1COc2cccc(OC)c2C1 (stereo not drawn)
14,220 to 222,CCOC(=O)c1cn(C2COC2)c2cc(F)c(F)c(OCc3ccccc3)c2c1=O
15,243 to 245,O=C(O)Cn1c(-c2cccc(F)c2)nc2cccnc21
